Laboratory results reported in patent publication US20040063611A1, “Pharmaceutical preparation” (Merck Patent GmbH, priority 1998, published 2004).

Assays:
[1] = In-vitro release Test 1 (phosphate buffer pH 7.4); format: physicochemical; details: micronized, particle size between 5 μm and 25 μm (to 95%)
Description: (§1) In the Federal Register Vol. 62, No. 15, Aug. 14, 1997; page 43535, the Department of Health and Human. Services, Food and Drug Administration, published the facts that the products available on the U.S. market which comprise levothyroxine sodium and are orally administered have stability problems and therefore must be present in an up to […] excess dose and that manufacturers must develop appropriate novel administration forms. The requirements on in-vitro release for levothyroxine Na tablets have furthermore been increased. The monograph draft version of the Pharmacopeial Forum (Pharm. Preview, 1995, 21, 1459-1461) proposes, in addition to the valid Test 1 (phosphate buffer pH 7.4, in 80 minutes >55%) to approve Test 2 (water in 45 minutes >70%).
(§2) With a particle size between 5 μm and 25 μm (to 95%) , however, a release of the active compound takes place in Test 1 to >90% (phosphate buffer) and in Test 2 to >80% (water).

[2] = non-micronized (customarily), cited from earlier work
[3] = In-vitro release Test 2 (water); format: physicochemical; details: micronized, particle size between 5 μm and 25 μm (to 95%)
Description: as §1, §2

release of the active compound in Test 1 [1]: > 90% | release of the active compound in Test 2 [3]: > 80%
SMILES: N[C@@H](Cc1cc(I)c(Oc2cc(I)c(O)c(I)c2)c(I)c1)C(=O)O [Levothyroxine sodium, levothyroxine sodium]
solubility in ethanol ([2]; ethanol): very sparingly soluble | solubility in water ([2]; water): very sparingly soluble
